From patent US20110077230A1, “COPPER ORGANOCOMPLEXES, USE THEREOF AS ANTITUMOR MEANS AND FOR PROTECTING HEALTHY TISSUE FROM IONIZING RADIATION” (CHARITE - UNIVERSITATSMEDIZIN BERLIN, priority 2008, published 2011)

Key:
[1] = system: colon adenocarcinoma tumor (AKATOL); assay: Transplanted colon adenocarcinoma (AKATOL), peroral administration; format: in vivo, mice of the BALB line; conditions: for Average weight of tumor: days 3 to 10, day 21
Method: Tumor cells were transplanted in mice of the BALB line by injection into the thighs. 3 of 4 groups received the respective preparation on the peroral route 3, 4, 5, 6, 7, 8, 9 and 10 days after tumor implantation.
Group I: 10 mg/kg complex A suspended in olive oil.
Group II: 5 mg/kg complex A suspended in olive oil.
Group III: 10 mg/kg sarcolysine suspended in olive oil.
On day 21 of the experiment the animals were sacrificed and examined.

[2] = system: human mammary gland tumor cells, T2N1M0 stage; assay: In vitro effect on human mammary gland tumor cells, Experiment 1; format: cell-based
Method: Tumor cells were collected from the surgical material of female patients suffering from mammary carcinoma at two different stages. The tumor tissue was added with sterile 0.25% trypsin solution and centrifuged repeatedly in RPMI-1640 nutrient medium for 15 minutes at 1500 revolutions per minute. The amount of resulting cells was counted and the suspension of tumor cells divided into five equal groups. The RPMI-1640 nutrient medium was added with 12% fetal calf serum. The cells were incubated for 48 h at 37° C. in a 5% CO2 stream.
The preparations were dissolved in 4% DMSO and physiological saline and acidified with HCl.
Two experiments were performed using cancer cells derived from tumors of different stages. To differentiate the various stages of cancer, the TNM classification is used internationally which takes into account the tumor size (T), lymph node affection (N=nodal status) and the extent of metastasis (M).
(T2: tumor up to 5 cm; N1; metastases in 3 lymph nodes; M0: no distant metastases). A suspension including 40 million cells was added with 50 μl of each preparation.
The 5 groups with cancer cells received the following:
After subjecting the preparations to flow incubation for 60 minutes, trypan blue stained cells were produced, and dead cells and apoptosis could be determined; dead cells and apoptotic cells were determined in specific units of time and morphological findings.

[3] = system: BJAB cells (lymphoma cell line); assay: Induction of apoptosis (DNA fragmentation, propidium iodide, FACS) in BJAB cells; format: cell-based, human; conditions: 0.1 mmol of complex A, 72 hours
Method: BJAB cells (lymphoma cell line) at a concentration of 1×10^5/ml were treated with increasing concentrations of complex A dissolved in DMSO and incubated for 72 hours at 37° C. and 5% CO2. Following propidium iodide staining, the DNA fragments were detected using flow cytometry (FACS analysis). KO (untreated cell suspension) and DMSO were carried along in an equivalent treatment.

[4] = system: Human lymphoma cells (BJAB); assay: In vivo inhibition of tumor growth, BJAB implanted in SCID mice; conditions: 10 mg/kg peroral, suspended in olive oil
Method: Human lymphoma cells (BJAB) were implanted in six SCID mice. After a tumor with a diameter of 5 mm had formed, the mice were subjected to peroral treatment with complex A at a dose of 10 mg/kg, suspended in olive oil. The control group consisted of 10 animals treated with olive oil only.
* denotes the significance (p≦0.05) in the Mann-Whitney U-test.

thymocytes = assay: Membrane potential of thymocytes (fluorescent dye); format: cell-based, rats of the Wistar line
Method: The Ehrlich ascites carcinoma (EAC) was obtained from white male mice of the strain MNR1 and the thymocytes from the thymus of rats of the Wistar line. Vitality of the cells was tested by vital staining using trypan blue and experiments and determined to be no less than 95% in all experiments. The NADH state in the EAC cells was assessed with reference to their fluorescence intensity. Measurement of the intracellular calcium concentration was performed according to the standard methodology of fluorescence using chlortetracycline. The membrane potential was measured using the fluorescent dye No. 1104. NADH is a source of electrons in the oxidative phosphorylation process. […] These effects are directed to inhibiting the NAD-dependent dehydrogenase. As a result, the respiratory chain in the tumor cells is inhibited.
Moreover, the complexes A and C have an influence on the membrane potential of thymocytes.

[5] = Solubility and stability of the complexes
melanoma B 16 = assay: B 16 melanoma in mice, peroral administration versus intraabdominal injection; format: in vivo, mice of the line C 57Bl; design: Average weight of tumor: unit not given here; conditions: for Average weight of tumor: day 16
Method: The melanoma B 16 was implanted in 23 mice of the line C 57Bl by subcutaneous injection into the right thigh. The animals were divided into five groups of four to five mice each.
Group I received complex A at a dosage of 7 mg/kg as a suspension in olive oil which was administered perorally 3, 5, 7 and 9 days after transplantation of the tumor.
Group II was treated as group I, but using a dosage of 10 mg/kg administered on the 3rd, 4th, 5th, 6th, 7th, 8th, 9th and 10th day.
Group III was treated as group II, but using a dosage of 15 mg/kg.
Group IV received complex A 3, 5, 7 and 9 days after transplantation of the tumor at a dosage of 7 mg/kg, dissolved in DMSO, to which end the solution was administered by injection in the form of a 4% suspension in physiological saline.
Group V received no treatment.
On day 16 of the experiment the animals were sacrificed and examined.

[6] = system: Ehrlich ascites adenocarcinoma; assay: Ehrlich ascites adenocarcinoma in mice; format: in vivo, white mice
Method: The tumor was implanted intraabdominally in white mice of no particular race.
Group I received complex A orally as a suspension in olive oil at a dosage of 10 mg/kg 3, 4, 5, 6, 7, 8, 9 and 10 days after tumor implantation.
Group II received the same treatment, but using sarcolysine instead of complex A.
Group III received no treatment.
The animals were sacrificed and examined on the 11th day after tumor implantation.

neutrophils = assay: Antioxidant properties: ROS formation in neutrophils; format: cell-based, male mice of the NMRI line; conditions: triggered by PMA and fMLF, depending on the dosage
Excerpt: The complexes A and C show a pronounced effect as antioxidant in an environment having an excess of reactive oxygen species (ROS). Thus, ROS formation in neutrophils obtained from male mice of the NMRI line was triggered by two activators: phorbol 12-myristate 13-acetate (PMA) and N-formyl-methionyl-leucylphenylalanine (fMLF).

Copper-sarcolysine hydrochloride complex [complex A]
% inhibition ([1]; 5 mg/kg peroral in olive oil): 68%
Average weight of tumor ([1]; 5 mg/kg peroral in olive oil): 1.04 g
% inhibition ([1]; 10 mg/kg peroral in olive oil): 81.5%
Average weight of tumor ([1]; 10 mg/kg peroral in olive oil): 0.71 g
Living cells, % ([2]; Experiment 1, T2N1M0): 24.0 ± 1.90%
Dead cells, % ([2]; Experiment 1, T2N1M0, 40 million cells, 50 μl of preparation): 76.0 ± 2.06%
induction of apoptosis, % of the cells [3]: 43.5%
inhibition of tumor growth [4]: significant inhibition of tumor growth
influence on the membrane potential of thymocytes (thymocytes): hyperpolarization of the cell membranes
solubility in DMSO ([5]; dimethyl sulfoxide (DMSO)): dissolves
solubility in organic solvents ([5]; most / many organic solvents): insoluble
stability at room temperature ([5]; room temperature, even when exposed to oxygen): stable
solubility in water ([5]; water): insoluble
% inhibition, mass percent (melanoma B 16; Group I: peroral 7 mg/kg): 62.0%
% inhibition, volume percent (melanoma B 16; Group I: peroral 7 mg/kg): 84.1%
Average volume of tumor (melanoma B 16; Group I: peroral 7 mg/kg): 1.39 cm^3
Average weight of tumor (melanoma B 16; Group I: peroral 7 mg/kg in olive oil, days 3, 5, 7, 9): 0.96 ± 0.14
% inhibition, mass percent (melanoma B 16; Group II: peroral 10 mg/kg): 73.10%
% inhibition, volume percent (melanoma B 16; Group II: peroral 10 mg/kg): 76.0%
Average volume of tumor (melanoma B 16; Group II: peroral 10 mg/kg): 1.55 cm^3
Average weight of tumor (melanoma B 16; Group II: peroral 10 mg/kg, days 3 to 10): 0.68 ± 0.34
% inhibition, mass percent (melanoma B 16; Group III: peroral 15 mg/kg): 100%
% inhibition, volume percent (melanoma B 16; Group III: peroral 15 mg/kg): 100%
Average volume of tumor (melanoma B 16; Group III: peroral 15 mg/kg): 0 cm^3
Average weight of tumor (melanoma B 16; Group III: peroral 15 mg/kg, days 3 to 10): 0
% inhibition, mass percent (melanoma B 16; Group IV: injection 7 mg/kg): 68.0%
% inhibition, volume percent (melanoma B 16; Group IV: injection 7 mg/kg): 76.7%
Average volume of tumor (melanoma B 16; Group IV: injection 7 mg/kg): 1.5 cm^3
Average weight of tumor (melanoma B 16; Group IV: injection 7 mg/kg in DMSO/physiological saline, days 3, 5, 7, 9): 1.025 ± 0.39
fate of the tumor (melanoma B 16; group 3: peroral 15 mg/kg): disappeared completely
% inhibition ([6]; 10 mg/kg orally): 75.3%
Average MI of bone marrow ([6]; 10 mg/kg orally): 0.95 ± 0.47 ‰
Average MI of tumor cells ([6]; 10 mg/kg orally): 1.0 ± 0.7 ‰
Average number of tumor cells ([6]; 10 mg/kg orally in olive oil, days 3 to 10, day 11): 40′ 10^6
formation of ROS in neutrophils (neutrophils): reduce or completely suppress
